Measured values reported in PMC8297402, “Trifluoromethyl-substituted 3,5-bis(arylidene)-4-piperidones as potential anti-hepatoma and anti-inflammation agents by inhibiting NF-кB activation” (Journal of Enzyme Inhibition and Medicinal Chemistry, 2021).
Where two headings read alike, the source gives them in different places.

Experiments:
HepG2 = test: Modified MTT cytotoxicity assay, HepG2; assay type: cell-based, Human; details: for IC50: Homo sapiens; for SI (selectivity index) HepG2: quotient of IC50 for normal (LO2) and malignant (HepG2) cells
How it was run: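 HepG2 grown in DMEM, SMMC-7721 and LO2 in RPMI 1640, each with 10% FBS; ~8 × 10^3 cells/well. Compounds at 0.3125-10 μg/mL for 24 h at 37 °C, then MTT for 4 h. IC50 as mean of three replicates.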

Bcl-2 = test: Western blot, Bcl-2 expression in HepG2 cells; assay type: cell-based, Human; details: HepG2, 1.0, 2.0, 4.0 μM, 24 h
Description: Primary antibodies (anti-Bax, Abcam, ab32503; anti-Bcl-2, Abcam, ab194583; anti-Cleaved caspase-3, Abcam, ab2302; anti-p65, Cell Signalling Technology, 8242S; anti-p-p65, Cell Signalling Technology, 3033S; anti-IκBα, Cell Signalling Technoligy, 4812S; anti-p-IκBα, Cell Signalling Technology, 2859S; anti-p38, Cell Signalling Technology, 8690S; anti-p-p38, Cell Signalling Technology, 4511S; anti-JNK, Cell Signalling Technology, 9258 T; anti-p-JNK, Santa Cruz Biotechnology, sc-6254; anti-GAPDH, Abcam, ab181602), and goat anti-rabbit IgG/HRP secondary antibodies (Cell Signalling Technology, 98164 s) were purchased and used according to the manufacturer’s instructions. HepG2 cell lines were incubated with different doses of BAP 16 (1.0, 2.0, 4.0 μM) for 24 h (Bax, Cleaved caspase-3, Bcl-2). RAW264.7 cells were incubated with BAP 16 for 1 h, then treated with LPS (1.0 μg/mL) for 30 min. Afterward cell extraction was performed and extracts were used for Western blot analysis. Next, 30 μg protein of cell lysates were separated by 12% SDS-PAGE gel. The proteins were then transferred onto nitrocellulose membranes. […] By using Quantity One software (Bio-Rad), western blotting results were quantified from more than three separate experiments.

O=C1C(=Cc2cccc(C(F)(F)F)c2)CN(S(=O)(=O)c2ccc(C(F)(F)F)cc2)CC1=Cc1cccc(C(F)(F)F)c1 [BAP 16]
IC50 (HepG2; HepG2, 24 h, MTT, 24 h incubation, three replicates, read-out: Cytotoxicity IC50 HepG2): ~600 nM | IC50 (HepG2; HepG2, average of HepG2 and SMMC-7721, read-out: Cytotoxicity against HCC cells, average): 900 nM | SI value, average (HepG2; average of SI for HepG2 and SMMC-7721): 22.3 | SI (selectivity index) HepG2 (HepG2): ca. 29.7 | SI (selectivity index) HepG2 (HepG2; listed as 16): 29.7 | Expression of anti-apoptotic protein Bcl-2 (Bcl-2): decreased in a dose-dependent manner
